Experimental data from ChEMBL document CHEMBL3991601, “The target landscape of clinical kinase drugs” (Science, 2017).
Calls of active or inactive are those of the source. Cut-off read from the data, not from the text of the source, for most assays here: actives have a measured Kd and inactives only a lower limit.

How the values were obtained:
[1] = target: Ribosomal protein S6 kinase alpha-6 (Homo sapiens, UniProt Q9UK32)
[2] = target: T1, Serine/threonine-protein kinase STK11 (Homo sapiens, UniProt Q15831)
T1 sequence (Q15831 whole entry): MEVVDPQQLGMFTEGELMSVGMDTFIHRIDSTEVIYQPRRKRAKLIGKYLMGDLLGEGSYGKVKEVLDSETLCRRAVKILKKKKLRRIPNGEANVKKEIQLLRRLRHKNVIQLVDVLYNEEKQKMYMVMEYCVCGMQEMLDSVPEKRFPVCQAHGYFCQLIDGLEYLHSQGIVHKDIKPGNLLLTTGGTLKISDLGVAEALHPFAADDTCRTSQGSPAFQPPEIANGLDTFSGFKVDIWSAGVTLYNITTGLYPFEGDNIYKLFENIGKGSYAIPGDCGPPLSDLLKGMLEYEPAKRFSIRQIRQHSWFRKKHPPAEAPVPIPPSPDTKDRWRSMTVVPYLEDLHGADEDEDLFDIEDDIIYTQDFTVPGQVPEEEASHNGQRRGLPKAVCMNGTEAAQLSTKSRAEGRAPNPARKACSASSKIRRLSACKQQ

[3] = target: Serine/threonine-protein kinase pim-1 (Homo sapiens, UniProt P11309)
Serine/threonine-protein kinase pim-1, sequence (P11309 whole entry): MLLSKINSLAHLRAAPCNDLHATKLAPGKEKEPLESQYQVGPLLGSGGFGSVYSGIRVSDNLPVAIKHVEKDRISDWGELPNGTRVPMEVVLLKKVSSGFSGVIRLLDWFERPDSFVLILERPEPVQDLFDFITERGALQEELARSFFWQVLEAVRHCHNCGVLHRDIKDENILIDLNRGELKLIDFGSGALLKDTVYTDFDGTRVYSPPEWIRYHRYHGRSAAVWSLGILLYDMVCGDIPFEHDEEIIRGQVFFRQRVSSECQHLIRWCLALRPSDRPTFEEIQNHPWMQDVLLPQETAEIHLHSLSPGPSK

[4] = target: T2, Tyrosine-protein kinase Tec (Homo sapiens, UniProt P42680)
T2 sequence (P42680 whole entry): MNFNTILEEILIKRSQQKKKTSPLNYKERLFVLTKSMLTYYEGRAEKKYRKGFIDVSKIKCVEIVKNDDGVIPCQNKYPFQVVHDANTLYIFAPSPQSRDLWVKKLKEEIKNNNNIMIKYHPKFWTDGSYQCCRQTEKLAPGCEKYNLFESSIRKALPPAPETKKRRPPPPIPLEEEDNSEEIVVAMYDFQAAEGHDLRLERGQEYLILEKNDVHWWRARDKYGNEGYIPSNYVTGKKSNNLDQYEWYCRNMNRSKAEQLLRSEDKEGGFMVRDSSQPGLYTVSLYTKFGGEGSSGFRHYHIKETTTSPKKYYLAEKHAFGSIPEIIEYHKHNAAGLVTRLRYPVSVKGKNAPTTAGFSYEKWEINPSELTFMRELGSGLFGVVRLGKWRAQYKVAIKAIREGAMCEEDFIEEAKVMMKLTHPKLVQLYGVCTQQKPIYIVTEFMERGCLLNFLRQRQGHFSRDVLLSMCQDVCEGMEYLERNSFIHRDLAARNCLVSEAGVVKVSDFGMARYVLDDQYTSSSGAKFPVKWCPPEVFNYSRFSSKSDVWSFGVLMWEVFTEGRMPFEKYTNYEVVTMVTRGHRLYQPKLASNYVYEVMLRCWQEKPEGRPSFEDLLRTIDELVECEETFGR

[5] = target: T3, Serine/threonine-protein kinase TBK1 (Homo sapiens, UniProt Q9UHD2)
T3 sequence (Q9UHD2 whole entry): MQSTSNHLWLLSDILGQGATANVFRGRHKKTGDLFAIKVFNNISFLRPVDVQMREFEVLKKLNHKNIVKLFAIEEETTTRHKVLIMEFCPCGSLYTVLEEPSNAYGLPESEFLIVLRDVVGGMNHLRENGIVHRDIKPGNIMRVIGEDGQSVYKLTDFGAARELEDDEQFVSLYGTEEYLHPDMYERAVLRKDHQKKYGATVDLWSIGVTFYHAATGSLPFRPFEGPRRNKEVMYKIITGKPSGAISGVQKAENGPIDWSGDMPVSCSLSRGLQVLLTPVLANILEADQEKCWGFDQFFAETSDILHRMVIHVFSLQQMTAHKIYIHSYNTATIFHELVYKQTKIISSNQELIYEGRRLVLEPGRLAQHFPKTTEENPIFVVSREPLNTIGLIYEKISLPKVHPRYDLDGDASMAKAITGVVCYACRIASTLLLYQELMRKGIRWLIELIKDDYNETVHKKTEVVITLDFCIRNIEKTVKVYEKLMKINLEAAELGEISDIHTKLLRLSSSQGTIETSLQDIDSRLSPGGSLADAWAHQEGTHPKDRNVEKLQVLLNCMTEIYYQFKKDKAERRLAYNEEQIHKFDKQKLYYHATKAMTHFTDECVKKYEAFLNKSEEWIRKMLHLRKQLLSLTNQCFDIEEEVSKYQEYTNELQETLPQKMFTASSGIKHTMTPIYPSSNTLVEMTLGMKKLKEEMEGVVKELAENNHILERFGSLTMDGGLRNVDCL

[6] = target: Tyrosine-protein kinase JAK1 (Homo sapiens, UniProt P23458)
Tyrosine-protein kinase JAK1, sequence (P23458 whole entry): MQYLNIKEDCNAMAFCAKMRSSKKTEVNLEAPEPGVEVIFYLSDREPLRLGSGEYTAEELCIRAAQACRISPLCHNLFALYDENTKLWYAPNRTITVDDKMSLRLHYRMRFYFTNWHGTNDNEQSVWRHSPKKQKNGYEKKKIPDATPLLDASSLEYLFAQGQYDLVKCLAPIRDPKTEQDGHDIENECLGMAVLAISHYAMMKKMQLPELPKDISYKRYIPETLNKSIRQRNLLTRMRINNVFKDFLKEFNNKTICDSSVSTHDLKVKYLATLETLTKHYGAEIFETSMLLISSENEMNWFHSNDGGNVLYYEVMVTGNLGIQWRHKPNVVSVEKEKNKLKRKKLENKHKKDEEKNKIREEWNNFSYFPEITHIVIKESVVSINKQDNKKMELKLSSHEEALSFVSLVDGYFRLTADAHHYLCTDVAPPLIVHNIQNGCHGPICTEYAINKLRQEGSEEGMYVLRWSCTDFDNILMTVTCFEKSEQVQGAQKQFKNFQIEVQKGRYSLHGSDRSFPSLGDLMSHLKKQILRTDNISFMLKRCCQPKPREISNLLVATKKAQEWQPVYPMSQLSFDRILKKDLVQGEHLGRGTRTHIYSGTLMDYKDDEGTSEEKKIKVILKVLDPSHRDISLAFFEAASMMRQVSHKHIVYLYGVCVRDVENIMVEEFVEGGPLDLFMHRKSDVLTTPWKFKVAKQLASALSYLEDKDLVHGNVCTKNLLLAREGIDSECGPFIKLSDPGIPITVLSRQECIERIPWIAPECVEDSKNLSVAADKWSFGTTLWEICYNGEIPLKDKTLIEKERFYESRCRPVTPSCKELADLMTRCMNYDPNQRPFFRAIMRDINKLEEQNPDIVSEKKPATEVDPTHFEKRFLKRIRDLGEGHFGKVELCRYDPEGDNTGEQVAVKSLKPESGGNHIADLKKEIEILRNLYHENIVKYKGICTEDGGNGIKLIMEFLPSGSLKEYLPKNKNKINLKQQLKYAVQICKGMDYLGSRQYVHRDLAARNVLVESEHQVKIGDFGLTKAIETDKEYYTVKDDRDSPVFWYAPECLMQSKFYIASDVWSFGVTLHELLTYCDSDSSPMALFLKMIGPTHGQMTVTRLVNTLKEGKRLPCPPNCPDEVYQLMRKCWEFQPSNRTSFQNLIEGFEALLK

[7] = target: T4, Ephrin type-B receptor 2 (Homo sapiens, UniProt P29323)
T4 sequence (P29323 whole entry): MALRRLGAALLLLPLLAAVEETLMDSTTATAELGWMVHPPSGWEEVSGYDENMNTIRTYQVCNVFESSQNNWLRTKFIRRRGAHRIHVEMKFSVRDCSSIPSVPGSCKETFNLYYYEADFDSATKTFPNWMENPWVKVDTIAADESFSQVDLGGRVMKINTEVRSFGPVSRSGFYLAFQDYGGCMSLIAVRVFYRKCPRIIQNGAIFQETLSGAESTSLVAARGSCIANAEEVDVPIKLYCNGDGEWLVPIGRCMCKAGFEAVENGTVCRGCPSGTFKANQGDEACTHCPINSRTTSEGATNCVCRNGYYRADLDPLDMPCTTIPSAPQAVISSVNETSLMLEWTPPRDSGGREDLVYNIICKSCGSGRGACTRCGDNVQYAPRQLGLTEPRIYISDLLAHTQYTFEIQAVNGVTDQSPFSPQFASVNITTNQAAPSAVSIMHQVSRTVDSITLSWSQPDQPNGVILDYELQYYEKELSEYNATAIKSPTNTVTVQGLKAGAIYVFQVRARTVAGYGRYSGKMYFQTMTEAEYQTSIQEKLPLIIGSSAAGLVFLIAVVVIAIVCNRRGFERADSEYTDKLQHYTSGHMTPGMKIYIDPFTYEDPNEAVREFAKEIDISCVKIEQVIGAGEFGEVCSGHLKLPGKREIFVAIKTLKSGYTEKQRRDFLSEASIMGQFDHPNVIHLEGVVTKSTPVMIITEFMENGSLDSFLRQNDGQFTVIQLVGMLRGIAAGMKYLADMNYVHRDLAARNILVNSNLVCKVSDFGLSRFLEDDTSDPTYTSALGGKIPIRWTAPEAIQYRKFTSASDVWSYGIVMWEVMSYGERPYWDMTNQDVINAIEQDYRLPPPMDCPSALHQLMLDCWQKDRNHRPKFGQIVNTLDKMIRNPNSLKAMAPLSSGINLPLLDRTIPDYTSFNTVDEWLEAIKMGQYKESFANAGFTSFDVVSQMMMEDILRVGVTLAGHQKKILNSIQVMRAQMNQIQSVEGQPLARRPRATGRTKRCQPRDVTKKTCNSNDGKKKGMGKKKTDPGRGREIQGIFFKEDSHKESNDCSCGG
Note: in the data inactive means no Kd found up to 30 µM.

Ribosomal protein S6 kinase alpha-6, sequence (Q9UK32 whole entry): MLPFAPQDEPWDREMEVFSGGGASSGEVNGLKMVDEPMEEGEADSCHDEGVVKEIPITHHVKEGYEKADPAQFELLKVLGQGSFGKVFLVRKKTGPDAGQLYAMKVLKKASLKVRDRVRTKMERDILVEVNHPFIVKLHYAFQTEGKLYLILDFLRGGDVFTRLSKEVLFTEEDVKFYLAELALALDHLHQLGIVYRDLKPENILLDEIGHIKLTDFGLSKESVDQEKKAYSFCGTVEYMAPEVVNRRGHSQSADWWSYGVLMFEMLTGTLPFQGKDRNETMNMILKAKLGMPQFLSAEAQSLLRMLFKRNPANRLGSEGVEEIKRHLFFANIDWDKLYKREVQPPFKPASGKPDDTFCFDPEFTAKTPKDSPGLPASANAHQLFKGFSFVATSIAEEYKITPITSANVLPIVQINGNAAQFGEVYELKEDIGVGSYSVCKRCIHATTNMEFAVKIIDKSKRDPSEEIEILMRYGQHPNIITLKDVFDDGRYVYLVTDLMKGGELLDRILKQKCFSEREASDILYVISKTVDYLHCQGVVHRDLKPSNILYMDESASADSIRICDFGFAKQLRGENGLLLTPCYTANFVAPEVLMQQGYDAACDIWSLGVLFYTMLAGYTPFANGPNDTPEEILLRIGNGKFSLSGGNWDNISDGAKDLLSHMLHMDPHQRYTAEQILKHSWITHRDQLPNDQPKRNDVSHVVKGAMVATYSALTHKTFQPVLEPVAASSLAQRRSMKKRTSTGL

Row | Kd [1] | Kd [2] | Kd [3] | Kd [4] | Kd [5] | Kd [6] | Kd [7] | Structure (SMILES)
1 | > 30 µM (inactive) | > 30 µM (inactive) | > 30 µM (inactive) | > 30 µM (inactive) | > 30 µM (inactive) | > 30 µM (inactive) | > 30 µM (inactive) | O=C(NC[C@H](O)CO)c1ccncc1Nc1ccc(I)cc1F [PIMASERTIB]
2 | > 30 µM (inactive) | > 30 µM (inactive) | > 30 µM (inactive) | > 30 µM (inactive) | > 30 µM (inactive) | > 30 µM (inactive) | > 30 µM (inactive) | C#Cc1cccc(Nc2ncnc3cc4c(cc23)OCCOCCOCCO4)c1 [ICOTINIB]
